According to the supplement of paper PMC3937590:

How the values were obtained:
Assay in all cases: -log10 GI50 (growth inhibition 50%) (-log10(M)); higher = more potent growth inhibition
T47D = test system: T47D
Summary of the method: (§1)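 Breast cancer cell lines were exposed to each compound for 72 hours at nine doses in 1:5 serial dilution, in triplicate, with a luminescence read-out against a time-zero plate. A Gompertz curve was fitted to the dose-response data by nonlinear least squares. The value is minus log10 of GI50, the molar concentration giving the set level of growth inhibition. Values equal to the top dose carry a < qualifier.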

SUM229PE = test system: SUM229PE
Summary of the method: as §1

HCC1806 = test system: HCC1806
Summary of the method: as §1

HCC1937 = test system: HCC1937
Summary of the method: as §1

SUM52PE = test system: SUM52PE
Summary of the method: as §1

MCF10A = test system: MCF10A
Summary of the method: as §1

ZR751 = test system: ZR751
Summary of the method: as §1

HCC3153 = test system: HCC3153
Summary of the method: as §1

LY2 = test system: LY2
Summary of the method: as §1

T47D_KBluc = test system: T47D_KBluc
Summary of the method: as §1

SKBR3 = test system: SKBR3
Summary of the method: as §1

MDAMB157 = test system: MDAMB157
Summary of the method: as §1

SUM1315MO2 = test system: SUM1315MO2
Summary of the method: as §1

SUM149PT = test system: SUM149PT
Summary of the method: as §1

SUM225CWN = test system: SUM225CWN
Summary of the method: as §1

MX1 = test system: MX1
Summary of the method: as §1

HCC70 = test system: HCC70
Summary of the method: as §1

184B5 = test system: 184B5
Summary of the method: as §1

UACC812 = test system: UACC812
Summary of the method: as §1

BT483 = test system: BT483
Summary of the method: as §1

Structure (SMILES)	-log10 GI50 (T47D)	-log10 GI50 (SUM229PE)	-log10 GI50 (HCC1806)	-log10 GI50 (HCC1937)	-log10 GI50 (SUM52PE)	-log10 GI50 (MCF10A)	-log10 GI50 (ZR751)	-log10 GI50 (HCC3153)	-log10 GI50 (LY2)	-log10 GI50 (T47D_KBluc)	-log10 GI50 (SKBR3)	-log10 GI50 (MDAMB157)	-log10 GI50 (SUM1315MO2)	-log10 GI50 (SUM149PT)	-log10 GI50 (SUM225CWN)	-log10 GI50 (MX1)	-log10 GI50 (HCC70)	-log10 GI50 (184B5)	-log10 GI50 (UACC812)	-log10 GI50 (BT483)
CC(=O)NCC(=O)N1[C@@H]2CC[C@H]1c1ccc(Nc3ncc(C(F)(F)F)c(NC4CCC4)n3)cc12	5.14	6.1	5.55	5.2	7.57	6.36	4.99	5.38	5.5	5.4	5.38	6.1	6.12	6.08	5.05	7	5.38	5.48		
CCC[C@H](N[C@H]1CCc2cc(F)cc(F)c2C1)C(=O)Nc1cn(C(C)(C)CNCC(C)(C)C)cn1	4.91	< 4.18	< 4.18	4.54	5.24	< 4.18	4.72	4.37	4.68	< 4.18	4.91	4.88	4.65	6.88	4.84	5.76	5.63	4.86	< 4.18	
COc1ccc(-c2cc3c(C)nc(N)nc3n([C@H]3CC[C@H](OCCO)CC3)c2=O)cn1	7.27	6.25	6.43	6.92	7.26	6.69	7.62	4.87	7.04	7.25	7.33	6.13	7.06	7.08	6.79	7.41	7.31	6.65	7.74	
Cn1ncc(Cl)c1-c1cc(C(=O)N[C@H](CN)Cc2ccc(F)c(F)c2)oc1Cl	7.35	5.59	5.25		6.3	5.03	8.26	6.12	6.62	6.48	6.93	5.22	5.01	7.42	6.88	8.11	8.68		7.18	
Oc1cc(-c2nc(-c3ccccc3)[nH]c2-c2ccncc2)ccc1Cl	< 4.48	4.52	4.9	4.84	5.13	4.92	4.59	< 4.48			4.66	4.88	4.69	5.14	5.15	4.98	4.49	5.45	4.9	4.84
CC(C)C[C@H](NC(=O)[C@H](Cc1ccccc1)NC(=O)c1cnccn1)B(O)O [Bortezomib]	8.02	7.48	7.59	8.1	8.28	6.64	7.55	7.9	6.46	6.52	7.88	8.16	7.75	8	8	8.06	8.6	8.33		7.44
COc1cc([C@@H]2c3cc4c(cc3[C@@H](O[C@@H]3O[C@@H]5CO[C@@H](C)O[C@H]5[C@H](O)[C@H]3O)[C@H]3COC(=O)[C@H]23)OCO4)cc(OC)c1O [Etoposide]	5.99	6.04	5.51	5.34	5.59	5.43	5.68	5.57	< 3.48	5.79	5.92	6.02	6.61	5.58	4.99	6.34	4.89	5.06		5.37
O=C1c2ccccc2-[n+]2ccc3c([nH]c4ccccc43)c21 [Fascaplysin]	6.34	6.51	6.59	6.41	6.74	6.43	6.45	6.55	8.1	7.31	6.65	6.77	6.38	6.4	7.25	6.53	6.9	6.53		7.18
Cc1cncc2cccc(S(=O)(=O)N3CCCN(C(=O)CN)C[C@@H]3C)c12 [Glycyl H1152]	4.82	5.31	< 4.18	< 4.18	5.1	5.28	4.81	< 4.48	6.28	< 4.18	4.33	< 4.18	5.15	4.57	< 4.18	5.96	6.04	< 4.18	4.59	
O=C(c1ccc(Nc2nccc(-c3cc4ccccc4s3)n2)cc1)N1CCC(N2CCCC2)CC1 [IKK 16]	5.55	6	5.99	5.59	5.94	5.56	5.29	5.48	5.26	5.38	5.53	5.74	5.81	5.82	5.51		5.54	5.83	5.09	
